Tests used:
FGFR1 = molecular target: T1, FGFR1 (Homo sapiens, UniProt P11362); test: Kinase binding assay (kinase-tagged T7 phage, affinity beads, qPCR), Kd; conditions: read-out: FGFR1 (Kd nM)
T1 construct: made in house; host or cells: E. coli (BL21-derived), T7 phage
Summary of the method: (§1)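 Readout was qPCR of kinase eluted from ligand-coated affinity beads after competition with test compound. Kinases were expressed as T7 phage fusions in E. coli. Binding constants were derived by non-linear least-squares Hill fitting, Hill slope −1.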

FGFR2 = molecular target: T2, FGFR2 (Homo sapiens, UniProt P21802); test: as above; conditions: read-out: FGFR2 (Kd nM)
T2 construct: made in house; host or cells: E. coli (BL21-derived), T7 phage
T2 sequence (P21802 22-821): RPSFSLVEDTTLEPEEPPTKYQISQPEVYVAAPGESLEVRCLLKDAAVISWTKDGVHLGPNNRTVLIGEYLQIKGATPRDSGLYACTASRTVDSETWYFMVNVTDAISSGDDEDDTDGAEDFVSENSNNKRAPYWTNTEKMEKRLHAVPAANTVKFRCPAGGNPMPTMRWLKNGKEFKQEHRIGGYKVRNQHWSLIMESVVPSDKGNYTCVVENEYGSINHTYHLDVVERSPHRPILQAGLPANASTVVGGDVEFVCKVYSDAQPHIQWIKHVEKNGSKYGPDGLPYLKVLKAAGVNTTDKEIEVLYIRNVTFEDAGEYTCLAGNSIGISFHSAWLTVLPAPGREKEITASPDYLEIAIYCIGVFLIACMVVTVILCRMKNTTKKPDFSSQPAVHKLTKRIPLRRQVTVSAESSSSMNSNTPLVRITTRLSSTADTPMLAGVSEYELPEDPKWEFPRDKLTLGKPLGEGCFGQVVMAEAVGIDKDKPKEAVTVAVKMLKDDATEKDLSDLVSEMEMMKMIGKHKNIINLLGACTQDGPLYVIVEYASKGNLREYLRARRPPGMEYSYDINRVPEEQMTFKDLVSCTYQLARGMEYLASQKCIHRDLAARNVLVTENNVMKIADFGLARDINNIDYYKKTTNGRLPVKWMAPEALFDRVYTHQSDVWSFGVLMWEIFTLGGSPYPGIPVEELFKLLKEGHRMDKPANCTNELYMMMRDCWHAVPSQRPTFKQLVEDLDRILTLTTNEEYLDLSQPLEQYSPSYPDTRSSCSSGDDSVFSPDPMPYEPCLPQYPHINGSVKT
Summary of the method: as §1

FGFR3 = molecular target: T3, FGFR3 (Homo sapiens, UniProt P22607); test: as above; conditions: read-out: FGFR3 (Kd nM)
T3 construct: made in house; host or cells: E. coli (BL21-derived), T7 phage
T3 sequence (P22607 23-806): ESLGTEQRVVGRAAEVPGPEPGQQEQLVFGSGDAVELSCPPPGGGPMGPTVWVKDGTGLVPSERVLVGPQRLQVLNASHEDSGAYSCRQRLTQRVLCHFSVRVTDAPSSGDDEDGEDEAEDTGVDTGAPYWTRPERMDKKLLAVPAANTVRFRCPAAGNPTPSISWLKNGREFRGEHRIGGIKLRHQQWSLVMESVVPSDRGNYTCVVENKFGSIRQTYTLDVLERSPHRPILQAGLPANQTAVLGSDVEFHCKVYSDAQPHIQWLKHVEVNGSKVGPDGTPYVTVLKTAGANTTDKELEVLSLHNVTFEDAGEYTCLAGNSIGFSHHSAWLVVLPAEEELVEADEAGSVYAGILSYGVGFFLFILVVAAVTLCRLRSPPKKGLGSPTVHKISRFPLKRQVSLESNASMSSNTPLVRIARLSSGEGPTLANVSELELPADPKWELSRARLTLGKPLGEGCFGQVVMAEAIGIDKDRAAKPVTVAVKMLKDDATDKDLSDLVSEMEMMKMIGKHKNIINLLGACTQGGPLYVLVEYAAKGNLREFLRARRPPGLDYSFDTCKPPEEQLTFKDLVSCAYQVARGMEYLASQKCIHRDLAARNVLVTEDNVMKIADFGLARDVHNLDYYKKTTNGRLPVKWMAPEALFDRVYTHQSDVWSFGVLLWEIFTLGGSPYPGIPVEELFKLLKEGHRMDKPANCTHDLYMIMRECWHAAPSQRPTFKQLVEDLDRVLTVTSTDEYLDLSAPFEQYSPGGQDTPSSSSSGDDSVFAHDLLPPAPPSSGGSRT
Summary of the method: as §1

FGFR3 (V555M) = molecular target: T4, FGFR3 (V555M) (Homo sapiens, UniProt P22607, V555M); test: as above; conditions: V555M mutant; read-out: FGFR3 (V555M) (Kd nM)
T4 construct: made in house; host or cells: E. coli (BL21-derived), T7 phage
T4 sequence (P22607 23-806 V555M): as the sequence (P22607 23-806) above, with V533M counted along it
Summary of the method: as §1

FGFR4 = molecular target: T5, FGFR4 (Homo sapiens, UniProt P22455); test: as above; conditions: read-out: FGFR4 (Kd nM)
T5 construct: made in house; host or cells: E. coli (BL21-derived), T7 phage
T5 sequence (P22455 22-802): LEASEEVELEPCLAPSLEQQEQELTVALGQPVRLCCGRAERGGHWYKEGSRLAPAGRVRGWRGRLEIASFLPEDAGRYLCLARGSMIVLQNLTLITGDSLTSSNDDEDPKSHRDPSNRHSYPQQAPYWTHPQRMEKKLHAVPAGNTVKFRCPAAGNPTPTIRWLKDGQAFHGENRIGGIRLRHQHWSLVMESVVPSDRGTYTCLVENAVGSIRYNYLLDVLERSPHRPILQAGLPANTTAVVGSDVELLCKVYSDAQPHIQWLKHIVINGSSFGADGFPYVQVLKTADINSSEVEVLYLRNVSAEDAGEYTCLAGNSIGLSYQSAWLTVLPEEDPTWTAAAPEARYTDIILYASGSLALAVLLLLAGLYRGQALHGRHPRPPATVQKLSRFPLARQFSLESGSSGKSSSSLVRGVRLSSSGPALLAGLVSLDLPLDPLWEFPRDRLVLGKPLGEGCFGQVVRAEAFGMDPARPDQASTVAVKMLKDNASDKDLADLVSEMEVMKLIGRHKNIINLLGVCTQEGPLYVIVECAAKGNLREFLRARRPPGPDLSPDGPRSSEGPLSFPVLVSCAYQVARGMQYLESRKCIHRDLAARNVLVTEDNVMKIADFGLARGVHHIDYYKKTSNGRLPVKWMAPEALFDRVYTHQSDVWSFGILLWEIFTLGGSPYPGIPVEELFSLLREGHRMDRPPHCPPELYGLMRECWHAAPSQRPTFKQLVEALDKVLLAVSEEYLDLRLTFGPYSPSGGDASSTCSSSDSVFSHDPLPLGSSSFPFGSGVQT
Summary of the method: as §1

[1] = system: KATO-III cell line (FGFR2 amplification); test: Cancer cell line cell viability assay (Cell Titer-Glo), 72 hr; format: cell-based; conditions: Homo sapiens, KATO III
Summary of the method: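 Cells seeded at 5,000-20,000/well, incubated overnight, then treated with a 9-dose, 4-fold dilution series from 3 μM in triplicate at 37° C, 5% CO2. Viability read by Cell Titer-Glo 2.0 luminescence as percent of DMSO control; IC50 from 4-parameter variable-slope sigmoidal fit.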

[2] = system: KG-1 cell line (FGFR 1-fusion); test: as above; format: cell-based; conditions: Homo sapiens, KG-1, KG-1 cell line (FGFR1-fusion)
Summary of the method: (§2)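 Cells were seeded at 5,000–20,000 per well, then exposed to a 9-point, 4-fold dilution series from 3 μM top concentration in triplicate at 37° C. Exposure was 120 h for MDA-MB-453 and HuH7 and 72 h for KG-1 and RT112/84. Viability was read as ATP by Cell Titer-Glo 2.0, expressed as % of DMSO control, and fitted by 4-parameter IC50.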

[3] = system: RT112/84 cell line (FGFR3-fusion); test: as above; format: cell-based; conditions: Homo sapiens, RT112/84, RT112/84 cell line (FGFR3-fusion)
Summary of the method: as §2

[4] = system: HuH7 cell line (FGF19 amplification); test: Cancer cell line cell viability assay (Cell Titer-Glo), 120 hr; format: cell-based; conditions: Homo sapiens, Huh-7
Summary of the method: as §2

T1 sequence (P11362 22-822): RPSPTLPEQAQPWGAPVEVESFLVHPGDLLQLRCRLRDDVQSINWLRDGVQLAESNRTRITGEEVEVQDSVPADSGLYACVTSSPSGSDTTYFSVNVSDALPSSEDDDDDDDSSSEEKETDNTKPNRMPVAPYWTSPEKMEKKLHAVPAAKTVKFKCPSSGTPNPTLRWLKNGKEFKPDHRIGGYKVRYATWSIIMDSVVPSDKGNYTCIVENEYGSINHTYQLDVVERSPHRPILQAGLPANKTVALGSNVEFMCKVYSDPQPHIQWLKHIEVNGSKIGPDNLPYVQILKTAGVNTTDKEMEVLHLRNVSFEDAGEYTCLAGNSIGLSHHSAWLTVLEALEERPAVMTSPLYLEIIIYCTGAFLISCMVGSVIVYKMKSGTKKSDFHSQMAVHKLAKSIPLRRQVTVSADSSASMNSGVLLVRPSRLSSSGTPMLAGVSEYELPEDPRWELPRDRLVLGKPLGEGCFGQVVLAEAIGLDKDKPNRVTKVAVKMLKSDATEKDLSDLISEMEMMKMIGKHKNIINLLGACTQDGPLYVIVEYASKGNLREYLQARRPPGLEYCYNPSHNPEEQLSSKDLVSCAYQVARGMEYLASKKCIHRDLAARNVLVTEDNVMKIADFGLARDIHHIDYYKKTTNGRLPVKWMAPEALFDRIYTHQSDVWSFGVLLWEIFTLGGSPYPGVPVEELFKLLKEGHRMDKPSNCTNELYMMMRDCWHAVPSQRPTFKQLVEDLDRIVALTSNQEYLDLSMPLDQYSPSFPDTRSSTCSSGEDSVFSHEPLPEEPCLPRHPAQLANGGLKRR

Row | Structure (SMILES) | Kd (FGFR1) [nM] | Kd (FGFR2) [nM] | Kd (FGFR3) [nM] | Kd (FGFR3 (V555M)) [nM] | Kd (FGFR4) [nM] | IC50 [1] [nM] | IC50 [2] [nM] | IC50 [3] [nM] | IC50 [4] [nM]
1 | C[C@@H](Oc1cc2c(-c3cnc(N4CC(C)(N5CCCC5)C4)c(C#N)c3)n[nH]c2cc1F)c1c(Cl)cncc1Cl [Example 135, (R)-5-(5-(1-(3,5-dichloropyridin-4-yl)ethoxy)-6-fluoro-1H-indazol-3-yl)-2-(3-methyl-3-(pyrrolidin-1-yl)azetidin-1-yl)nicotinonitrile] | 50 to 300 | 1 to 50 | 1 to 50 | 1 to 50 | 1 to 50 | 200 to 1000 | 200 to 1000 | 50 to 200 | 50 to 200
2 | COc1cc2[nH]nc(-c3cnc(N4CC(C)(NCC(C)C)C4)c(C#N)c3)c2cc1O[C@H](C)c1c(Cl)cncc1Cl [Example 139, (R)-5-(5-(1-(3,5-dichloropyridin-4-yl)ethoxy)-6-methoxy-1H-indazol-3-yl)-2-(3-(isobutylamino)-3-methylazetidin-1-yl)nicotinonitrile] | 1 to 50 | 1 to 50 | 1 to 50 | 1 to 50 | 1 to 50 | 50 to 200 | 50 to 200 | 0.1 to 50 | 0.1 to 50
3 | C[C@@H](Oc1ccc2[nH]nc(-c3cnc(N4CC(C)(N5CCS(=O)(=O)CC5)C4)c(C#N)c3)c2c1)c1c(Cl)cncc1Cl [Example 321, (R)-5-(5-(1-(3,5-dichloropyridin-4-yl)ethoxy)-1H-indazol-3-yl)-2-(3-(1,1-dioxidothio-morpholino)-3-methylazetidin-1-yl)nicotinonitrile] | 1 to 50 | 1 to 50 | 1 to 50 | 1 to 50 | 1 to 50 | 200 to 1000 | 200 to 1000 | 50 to 200 | 0.1 to 50
4 | C[C@@H](Oc1ccc2[nH]nc(-c3cnc(N4CC(C)(NCCS(C)(=O)=O)C4)c(C#N)c3)c2c1)c1c(Cl)cncc1Cl [Example 325, 5-[5-[(1R)-1-(3,5-dichloro-4-pyridyl)ethoxy]-1H-indazol-3-yl]-2-[3-methyl-3-(2-methylsulfonylethyl-amino)azetidin-1-yl]pyridine-3-carbonitrile] | 1 to 50 | 1 to 50 | 1 to 50 | 1 to 50 | 1 to 50 | 50 to 200 | 200 to 1000 | 50 to 200 | 0.1 to 50
5 | C[C@@H](Oc1ccc2[nH]nc(-c3cnc(N4CC(C)(N5CCP(C)(=O)CC5)C4)c(C#N)c3)c2c1)c1c(Cl)cncc1Cl [Example 328, (R)-5-(5-(1-(3,5-dichloropyridin-4-yl)ethoxy)-1H-indazol-3-yl)-2-(3-methyl-3-(4-methyl-4-oxido-1,4-azaphosphinan-1-yl)azetidin-1-yl)nicotinonitrile] | 1 to 50 | 1 to 50 | 1 to 50 | 1 to 50 | 1 to 50 | 200 to 1000 | > 1000 | 50 to 200 | 50 to 200
6 | COc1cc2[nH]nc(-c3cnc(N4CC(C)(NCP(C)(C)=O)C4)c(C#N)c3)c2cc1O[C@H](C)c1c(Cl)cncc1Cl [Example 329, 5-[5-[(1R)-1-(3,5-dichloro-4-pyridyl)ethoxy]-6-methoxy-1H-indazol-3-yl]-2-[3-(dimethyl-phosphoryl-methylamino)-3-methyl-azetidin-1-yl]pyridine-3-carbonitrile] | 1 to 50 | 1 to 50 | 1 to 50 | 1 to 50 | 1 to 50 | 200 to 1000 | > 1000 | 50 to 200 | 0.1 to 50
7 | COc1cc2[nH]nc(-c3cnc(N4CC(C)(N5CCS(=O)(=O)CC5)C4)c(C#N)c3)c2cc1O[C@H](C)c1c(Cl)cncc1Cl [Example 334, (R)-5-(5-(1-(3,5-dichloropyridin-4-yl)ethoxy)-6-methoxy-1H-indazol-3-yl)-2-(3-(1,1-dioxidothio-morpholino)-3-methylazetidin-1-yl)nicotinonitrile] | 1 to 50 | 1 to 50 | 1 to 50 | 1 to 50 | 1 to 50 | 50 to 200 | 200 to 1000 | 0.1 to 50 | 0.1 to 50
8 | COc1cc2[nH]nc(-c3cnc(N4CC(C)(N5CC6CC(C5)O6)C4)c(C#N)c3)c2cc1O[C@H](C)c1c(Cl)cncc1Cl [Example 337, 2-(3-(6-oxa-3-aza-bicyclo[3.1.1]hep-tan-3-yl)-3-methylazetidin-1-yl)-5-(5-((R)-1-(3,5-dichloropyridin-4-yl)ethoxy)-6-methoxy-1H-indazol-3-yl)nicotinonitrile] | 1 to 50 | 1 to 50 | 1 to 50 | 1 to 50 | 1 to 50 | 50 to 200 | 50 to 200 | 0.1 to 50 | 0.1 to 50
9 | COc1cc2[nH]nc(-c3cnc(N4CC(C)(N5C[C@H]6C[C@@H]5CO6)C4)c(C#N)c3)c2cc1O[C@H](C)c1c(Cl)cncc1Cl [Example 338, 2-(3-((1R,4R)-2-oxa-5-aza-bicyclo[2.2.1]hep-tan-5-yl)-3-methylazetidin-1-yl)-5-(5-((R)-1-(3,5-dichloropyridin-4-yl)ethoxy)-6-methoxy-1H-indazol-3-yl)nicotinonitrile] | 1 to 50 | 1 to 50 | 1 to 50 | 1 to 50 | 1 to 50 | 50 to 200 | 50 to 200 | 0.1 to 50 | 0.1 to 50

Second part, the compound after the results:

Row | Kd (FGFR1) [nM] | Kd (FGFR2) [nM] | Kd (FGFR3) [nM] | Kd (FGFR3 (V555M)) [nM] | Kd (FGFR4) [nM] | IC50 [1] [nM] | IC50 [2] [nM] | IC50 [3] [nM] | IC50 [4] [nM] | Structure (SMILES)
10 | 1 to 50 | 1 to 50 | 1 to 50 | 1 to 50 | 1 to 50 | 50 to 200 | 50 to 200 | 0.1 to 50 | 0.1 to 50 | COc1cc2[nH]nc(-c3cnc(N4CC(C)(N)C4)c(C#N)c3)c2cc1O[C@H](C)c1c(Cl)cncc1Cl [Example 143, 2-(3-amino-3-methyl-azetidin-1-yl)-5-[5-[(1R)-1-(3,5-dichloro-4-pyridyl)ethoxy]-6-methoxy-1H-indazol-3-yl]pyridine-3-carbonitrile]
11 | 1 to 50 | 1 to 50 | 1 to 50 | 1 to 50 | 1 to 50 | 50 to 200 | 50 to 200 | 0.1 to 50 | 0.1 to 50 | CC[C@H](C)NC1(C)CN(c2ncc(-c3n[nH]c4cc(OC)c(O[C@H](C)c5c(Cl)cncc5Cl)cc34)cc2C#N)C1 [Example 144, 5-[5-[(1R)-1-(3,5-dichloro-4-pyridyl)ethoxy]-6-methoxy-1H-indazol-3-yl]-2-[3-methyl-3-[[(1S)-1-methylpropyl]amino]aze-tidin-1-yl]pyridine-3-carbonitrile]
12 | 1 to 50 | 1 to 50 | 1 to 50 | 1 to 50 | 1 to 50 | 50 to 200 | 50 to 200 | 0.1 to 50 | 0.1 to 50 | CC[C@@H](C)NC1(C)CN(c2ncc(-c3n[nH]c4cc(OC)c(O[C@H](C)c5c(Cl)cncc5Cl)cc34)cc2C#N)C1 [Example 145, 5-[5-[(1R)-1-(3,5-dichloro-4-pyridyl)ethoxy]-6-methoxy-1H-indazol-3-yl]-2-[3-methyl-3-[[(1R)-1-methylpropyl]amino]aze-tidin-1-yl]pyridine-3-carbonitrile]
13 | 1 to 50 | 1 to 50 | 1 to 50 | 1 to 50 | 1 to 50 | 50 to 200 | 50 to 200 | 0.1 to 50 | 0.1 to 50 | CCCNC1(C)CN(c2ncc(-c3n[nH]c4cc(OC)c(O[C@H](C)c5c(Cl)cncc5Cl)cc34)cc2C#N)C1 [Example 146, 5-[5-[(1R)-1-(3,5-dichloro-4-pyridyl)ethoxy]-6-methoxy-1H-indazol-3-yl]-2-[3-methyl-3-(propylamino)azetidin-1-yl]pyridine-3-carbonitrile]
14 | 1 to 50 | 1 to 50 | 1 to 50 | 1 to 50 | 1 to 50 | 50 to 200 | 50 to 200 | 0.1 to 50 | 0.1 to 50 | C=CCNC1(C)CN(c2ncc(-c3n[nH]c4cc(OC)c(O[C@H](C)c5c(Cl)cncc5Cl)cc34)cc2C#N)C1 [Example 147, (R)-2-(3-(allylamino)-3-methylazetidin-1-yl)-5-(5-(1-(3,5-dichloropyridin-4-yl)ethoxy)-6-methoxy-1H-indazol-3-yl)nicotinonitrile]

Source: patent US20250368666A1, “INDAZOLE COMPOUNDS” (TYRA BIOSCIENCES, INC., priority 2022, published 2025)
